The subject of data set [1] is H292 cell. In words: Evaluation of cytotoxicity in H292 cell (CCK-8). It counts as cell-based, human. The settings on record: for H292 cell viability (%, mean ± variation): 24 hours, CCK-8. The protocol: In order to determine the cytotoxicity of inventive compound, following preliminary test was performed by the method disclosed in the literature (Shiyama et al., Talanta, 1997, 44, 1299-1305; Tominaga et al., Anal. Commun., 1999, 36, 47-50).
HT1080 (CRL-12012), H292 (CRL-1848) and murine EL4 cells (TIB-39) were purchased from company (American Type Culture Collection).
HT1080 (CRL-12012) and murine EL4 cells were cultured in DMEM medium (SB30243.01, Dulbecco's modified Eagle's medium; DMEM, HyClone) supplemented with 10% FBS (Fetal Bovine Serum; Gibco) and antibiotic (100 units/ml penicillin+100 units/ml streptomycin). H292 cell was cultured in RPMI medium (SH30027.01, RPMI 1640, Gibco) supplemented with 10% FBS and antibiotic. The cells were cultures under the condition of humidified 5% CO2 atmosphere at 37° C. PMA (P8139, Phorbol 12-myristate 13-acetate) was purchased from the company (Sigma Chemical Co., St. Louis, Mo.) and TNF-α is from the company (300-01A, PeproTech, NJ USA Inc.) to use in the experiment.
H292 cell line, a human hung mucosal cancer cell line, was suspended in 10% FBS-supplemented RPMI medium in a concentration of 5×10^4 cells/ml, and 100 μl of the suspension was inoculated into 96 well plates to adhere cell to the plate for 12 hours. Various concentrations of test sample (KS 534 compound) were treated therewith and cultured for 24 hours. 10 μL of CCK-8 solution was mixed with 90 μL of the medium and 100 μL of solution was added to each well. After reacting from 30 mins to 4 hours, the absorbance of the solution was determined at 570 nm. The cell viability was calculated according to following Math formulae 1 based on negative control group treated with 0.2% DMSO and the result was shown in Table 2.
Cell viability (%)=OD 570 nm (test group)/OD 570 nm (negative control group)×100 Math formulae 1

Data set [2] has as its system COPD induced mice. Description: Anti-COPD effect in cigarette smoke + LPS COPD mouse model. Particulars: for activity of neutrophils elastase enzyme in BALF comparing with COPD induced group / reduced level of ROS in BALF comparing with COPD induced group / reduced level of neutrophils in BALF comparing with COPD induced group / reduced level of proteins in BALF comparing with COPD induced group / reduced level of IL-6 in BALF comparing with COPD induced group / reduced level of TNF-alpha in BALF comparing with COPD induced group: COPD mice; for reduced level of IL-6 in BALF comparing with COPD induced group / reduced level of TNF-alpha in BALF comparing with COPD induced group: ELISA. It counts as in vivo, C57BL/6N mouse. As to the method:
In order to determine the anti-COPD effect of inventive compounds in COPD animal model, following test was performed by using COPD induced mice as disclosed in the literature (Bhaysar, T. et al., J. Chronic Obstr. […]. Dis., 2008, 3, 477-481). Specific pathogen-free male C57BL/6N mouse (about 22-24 g), aged 6 weeks, which were routinely screened serologically for relevant respiratory pathogens, were purchased from Koatech Co. (koatech.co.kr, Seoul, Korea) and bred allowing to access freely to feed (antibiotic free, Samyang Oil & Feed Corp., Korea) and water in breeding room controlling the temperature of 22±2° C., and humidity of 55±15% at the light-dark cycle for 12 hours and acclimated with the experimental environment for 1 week. 2 kinds of test samples, […] ingredient: Roflumilast, 10 mg/kg) were dissolved in 0.5% sodium carboxymethyl cellulose ([…], Sigma-Aldrich, USA) and used as test samples. KS534, and Rolflumilast (ROF 11-492, HETERO, India) were orally administrated to the mice, 1 hour before prior the intratracheal instillation (i.t.). 3R4F Kentuchy Reference Cigarettes ([…], USA) was used as a standard cigarette for generating a cigarette smoke. The cigarette containing 9.4 mg of tar, 11 mg of TPM (total particle matter) and 12 mg of carbon monooxide per piece, was used after harmonizing with the temperature of 22±1° C. and humidity of 60±2% after opening for 48-72 hrs. The exposure of cigarette smoke was performed by using a cigarette smoke generator (DBL Co. Ltd., dhbiolink.com, Korea). The mice were divided into five groups: normal (NC), COPD (cigarette smoke with LPS intranasal instillation), Rof (10 mg/kg of roflumilast, p.o.+cigarette smoke with LPS intranasal instillation), and KS534-15 and 30 (15 mg/kg and 30 mg/kg of KS534, p.o.+cigarette smoke with LPS instillation, respectively). Exposure of cigarette smoke (one puff/min, 35 ml puff volume over 2 s, every 60 s, 8 cigarettes per day) was conducted using a cigarette smoke generator. The mice received 1 h of cigarette smoke exposure in an exposure chamber (50 cm×30 cm×30 cm) for 3 days. Roflumilast and piscroside C were administered to mice by oral lavage 1 h before cigarette smoke exposure for 3 days. LPS was intranasally instilled ([…] dissolved in 50 μL distilled water) under anesthesia 1 h after the final exposure to cigarette smoke. After the end of experiment, the blood, BALF, and pneumonocyte of each rat were isolated and collected to test. After finishing the experiment, rats were anaesthetized with Zoleti150 (3VX9, Virbac, France, p.o) and the blood was delivered through caudal veins. In order to isolate BALF from lung, the bronchus of right lung was ligated with suture and then performed to tracheostomy. IV-use catheter (16 GA, 3S-Cath, Dukwoo, Korea) was put into the bronchus, and both of bronchus and catheter (16 GA, 3S-Cath, Dukwoo, Korea) were fixed with suture. The injector containing 1 ml of DPBS 0.7 (Dubecco's phosphate-buffered saline, Invitrogen, USA) was connected thereto and DPBS was forced to circulate three times to isolate BALF. The right lung ligated with suture was isolated, fixed with 10% neutral formalin solution, and the remaining lung tissue was reserved in refrigerator at -70° C. The isolated BALF was centrifuged for 15 mins at 1500 rpm to prepare cell pellet and the supernatant was reserved in refrigerator at -70° C. for cytokine analysis. The cell pellet was suspended in DPBS, and the cell was attached to a slide glass using by cytospin centrifuge (CS03270047, Hanil, Korea). Diff-Quik staining (ZS1003, Sysmex, Japan) was performed and the cell was observed by optical microscopy (DM1000, Leica, German) to count the number of immunocyte in each test sample. The level of ROS in BALF isolated from the mice was determined by DCF-DA (dihydrodo chloro fluoresce indiacetate, 35854, Sigma-Aldrich, USA) and the final concentration of DCF-DA was adjusted to 20 μm in 200 μL to incubate 30 mins. […]
Background: An ELISA detects its analyte on a solid surface through an enzyme-linked reagent.

Take `O=C(CO)O[C@@H]1O[C@@H]2C[C@H]3[C@H](OC(=O)c4ccc(O)c(O)c4)[C@@H](Cl)[C@@](O)(CO2)[C@@H]13` [KS-534, (3R,5S,5aS,6R,7S,8R,8aS)-8-chloro-8a-hydroxy-5-(2-hydroxyacetoxy) hexahydro-1H-3,6-methanocyclopenta[e][1,3]dioxepin-7-yl3,4-dihydroxybenzoate]: the “H292 cell viability (%, mean ± variation)” value in data set [1] (2.5 μm) came out at 101.88 ± 3.71%. Besides, the “H292 cell viability (%, mean ± variation)” value in data set [1] (5 μm) is 102.46 ± 3.96%. Further, the “H292 cell viability (%, mean ± variation)” value in data set [1] (10 μm) was 99.89 ± 4.79%. For the same compound, the “H292 cell viability (%, mean ± variation)” value in data set [1] (20 μm) was determined as 97.87 ± 2.92%. In addition, the “cytotoxicity in H292 cell” value in data set [1] (at less than 20 μm) was “did not show cytotoxicity”. Further, in data set [2] (15 mg/kg p.o.), the “activity of neutrophils elastase enzyme in BALF comparing with COPD induced group” value was “remarkably reduced”, the “reduced level of ROS in BALF comparing with COPD induced group” value came out at 19.5%, the “reduced level of neutrophils in BALF comparing with COPD induced group” value came out at 26.3% and the “reduced level of proteins in BALF comparing with COPD induced group” value was 20.8%. For the same compound, in data set [2] (15 mg/kg p.o.), the “reduced level of IL-6 in BALF comparing with COPD induced group” value is 35.8% and the “reduced level of TNF-alpha in BALF comparing with COPD induced group” value is 18.3%. In data set [2] (30 mg/kg p.o.), the “activity of neutrophils elastase enzyme in BALF comparing with COPD induced group” value was “remarkably reduced”, the “reduced level of ROS in BALF comparing with COPD induced group” value is given as 27.5%, the “reduced level of neutrophils in BALF comparing with COPD induced group” value came out at 25.7% and the “reduced level of proteins in BALF comparing with COPD induced group” value amounted to 28.5%. For the same compound, in data set [2] (30 mg/kg p.o.), the “reduced level of IL-6 in BALF comparing with COPD induced group” value is 50.6% and the “reduced level of TNF-alpha in BALF comparing with COPD induced group” value came out at 27.6%. Besides, in data set [2] (30 mg/kg p.o., COPD mice (FIG. 14)), the “invasion of the inflamed cells in lung tissue (histology)” value is reported as “significantly reduced”.
